The conditions of data set [1]: amide bond.
Data set [2] concerns the target T1, human orexin-2 receptor (OX2R) (Homo sapiens, UniProt O43614).
T1 construct: expressed in transfected cells
T1 sequence (O43614 1-444): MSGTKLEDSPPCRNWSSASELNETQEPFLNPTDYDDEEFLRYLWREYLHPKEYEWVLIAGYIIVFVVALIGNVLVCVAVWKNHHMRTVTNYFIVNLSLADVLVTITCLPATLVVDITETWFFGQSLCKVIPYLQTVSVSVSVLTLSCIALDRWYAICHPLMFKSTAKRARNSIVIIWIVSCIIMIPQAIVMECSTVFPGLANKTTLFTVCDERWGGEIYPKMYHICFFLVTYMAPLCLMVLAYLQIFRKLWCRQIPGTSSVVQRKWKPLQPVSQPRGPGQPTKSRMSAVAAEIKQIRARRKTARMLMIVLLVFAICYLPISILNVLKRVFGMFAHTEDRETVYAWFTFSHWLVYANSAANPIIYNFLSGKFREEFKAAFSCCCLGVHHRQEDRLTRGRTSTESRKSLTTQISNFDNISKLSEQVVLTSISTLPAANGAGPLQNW
In words: Human OX2R IP1 assay. The data set is classed as cell-based. The note with it: T-Rex CHO cells stably overexpressing human OX2R, IP1 accumulation, 1 hr at 37 degrees C; mean EC50; ∧ = racemic mixture. An outline of the steps:
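Doxycycline-induced T-Rex CHO cells stably expressing human OX2R treated with compound 1 hr at 37 °C in LiCl-containing buffer, pH 7.4. IP1 accumulation quantified by HTRF competitive immunoassay; EC50 reported as mean ± S.E.M.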

Another data set relates to MDR1. In words: MDCK-MDR1 permeability assay. The data set is classed as in vitro ADME. As to conditions: dog; for Papp A→B at 2 h, 3 μM: MDCK-MDR1, MDCK-MDR1 cells, apical to basolateral, 3 μM test compound, 2 hours at 37 degrees C; for efflux ratio at 2 h, 3 μM: MDCK-MDR1, Papp (basolateral to apical) divided by Papp (apical to basolateral), MDCK-MDR1 cells, read-out: Efflux ratio (ER). How it is done: The bidirectional permeability (Apical to Basal and Basal to Apical directions) of test compounds in MDCK-MIDR1 cells were evaluated using MDCK-MIDR1 cells seeded in Solvo PreadyPort™ MIDCK 96-well plate. Once the plate was received from ReadyCell (Barcelona, Spain), it was treated as per PreadyPort™ user's manual.
For the Apical to Basolateral (A→B) permeability, 80 μL of test compound (3 μM) co-dosed with LY (Lucifer Yellow) (100 μM) in HBSS (Hank's Balanced Salt Solution) assay buffer was added to the donor side (A) while 250 μL of HBSS buffer was added to the receiver side (B). For the Basolateral to Apical (B→A) permeability, 255 μL of test compound (3 μM) in HBSS assay buffer was added to the donor side (B) while 75 μL of HBSS buffer containing LY (100 μM) was added to the receiver side (A).
The plate was placed in an incubator set at 37 degrees C. After 10 minutes of pre-warming, 5 μL aliquot was taken from donor compartment and set aside as the dosing solution. The MDCK-MDR1 incubation plate was placed back into the incubator for 2 hours of incubation at 37 degrees C. After 2 hours of incubation, 25 μL and 5 μL aliquots were removed from the receiver and donor sides, respectively. To the 5 μL aliquots taken from the donor sides (before and after a 2-hour incubation) were diluted with 20 μL of the HBSS buffer. All samples were mixed with 150 μL with acetonitrile containing internal standard (IS) and 200 μL water, and analyzed by LC-MS/MS.
The apparent permeability (Papp) was calculated using the following formula: Papp=dQ/dt×1/A×C0 where: • dQ/dt: amount of translocated material over incubation time (nmol/s) • A: area of insert (0.14 cm^2 for PreadyPort™ MDR1-96) • C0: initial concentration of product applied in apical (A→B) or basal (B→A) compartment (nmol/mL)
The efflux ratio (ER) was measured by dividing the Papp (basolateral to apical direction) by Papp (apical to basolateral direction). It is a general measure of the involvement of active processes. An ER>2 is considered positive for active transport.
The data reported in Table 3 were obtained according to the MDCK-MIDR1 permeability assay described above.

The test system of a further data set is human hepatocytes. In words: Hepatocytes stability assay (human hepatocytes). In kind it is in vitro ADME. The note with it: scaled hepatic clearance divided by liver blood flow, fu assumed unity. As for the experimental part: (§1) In vitro metabolic stability was assessed using cryopreserved hepatocytes from male Sprague Dawley rats and a pool of 50 mixed gender humans (BioIVT, Baltimore, MD). The incubation mixtures were prepared by mixing 250 μL of pre-warmed KHB (Krebs-Henseleit buffer) containing 2×10^6 cell/mL of hepatocytes with 250 μL of pre-warmed KHB buffer containing 2 μM of test compounds in a 48-well plate, giving a final concentration of 1 μM test compound (0.1% DMSO) and 1×10^6 cell/mL of hepatocytes. The reaction mixture was incubated at 37 degrees C. A 50 μL aliquot of incubation mixture was taken at time points (0, 15, 30, 60, 120 and 240 minutes) and transferred into a 96-well plate containing 300 μL ice-cold acetonitrile (containing 30 ng/mL of labetalol and 10 ng/mL of Naltrexone-d3 as internal standards) and immediately placed in ice to terminate the reaction. Samples were centrifuged, and supernatants were transferred into 96-well plates for liquid chromatography with tandem mass spectrometry (LC-MS/MS) analysis to monitor the depletion of the test compound.
(§2) Data was calculated as percent remaining by assuming zero-minute time point peak area ratio (analyte/IS) as 100% and dividing remaining time point peak area ratios by zero-minute time point peak area ratio. Data were fitted to a first-order decay model to determine half-life. From a plot of log (ln) peak area against time, the slope of the line was determined. Subsequently, half-life (T1/2) and intrinsic clearance (CLint) were calculated using the equations below: Elimination rate constant (k)=(−slope) Half-life (T1/2)min=0.693/k Intrinsic Clearance (CLint) (mL/min/million cells)=(V×0.693)/T1/2 V=incubation volume mL/number of cells The in vitro T1/2 was converted to in vitro intrinsic clearance (CLint,hep) in units of mL/min/kg using the formula shown below:
(§3) [formula] The in vitro intrinsic clearance (CLint,hep) was scaled to in vivo hepatic clearance (CL,hep) using the following equation which was adapted from a well-stirred model.
(§4) [formula] where Q is the liver blood flow and fu is the fraction unbound (assumed to be unity in this case). All parameters used in the calculation are shown below (Table 4).
(§5) The extraction ratio (ER) was calculated by dividing the hepatic clearance of a compound to the liver blood flow. The data reported in Table 5 were obtained according to the human hepatocytes stability assay described above.

A short description of data set [3]: Hepatocytes stability assay (human hepatocytes). The data set is classed as in vitro ADME. The note with it: both sexes, cryopreserved hepatocytes, 1 μM test compound, 1×10^6 cell/mL, 37 degrees C, read-out: CLint (μL/min/million cells). How it is done:
as §1, §2, §3, §4, §5

Where two headings read alike, the source gives them in different places.

`CC(C)(C)OC(=O)N([C@H]1CCN2C(=O)COc3ccccc3C3CCC(CC3)OC[C@@H]12)S(C)(=O)=O` had a ring closure, isolated yield in data set [1] (from CC(C)(C)OC(=O)N([C@H]1CCN[C@H]1COC1CCC(c2ccccc2OCC(=O)O)CC1)S(C)(=O)=O, 13-membered ring, HATU/DIEA, MeCN, 2.4 mM, 2.0 h) of 31%.
In data set [1] (from CC(C)(C)OC(=O)N([C@H]1CCN[C@H]1COC1CCC(c2cccnc2OCC(=O)O)CC1)S(C)(=O)=O, 13-membered ring, HATU/DIEA, MeCN, 9.5 mM, 2.0 h), `CC(C)(C)OC(=O)N([C@H]1CCN2C(=O)COc3ncccc3C3CCC(CC3)OC[C@@H]12)S(C)(=O)=O` displayed a ring closure, isolated yield of 41.4%.
With `CC(C)(C)OC(=O)NC1CCCN2C(=O)COc3cnccc3C3CCC(CC3)OCC12` (stereo not drawn), the ring closure, isolated yield in data set [1] (from CC(C)(C)OC(=O)NC1CCCNC1COC1CCC(c2ccncc2OCC(=O)O)CC1, 13-membered ring, HATU/DIEA, MeCN, 0.22 mM, 2.0 h) came out at 23.4%.
The compound `CC(C)(C)OC(=O)N[C@H]1CCCN2C(=O)CCCOc3ccccc3C3CCC(CC3)OC[C@@H]12` registered a ring closure, isolated yield in data set [1] (from CC(C)(C)OC(=O)N[C@H]1CCCN[C@H]1COC1CCC(c2ccccc2OCCCC(=O)O)CC1, 15-membered ring, HATU/DIEA, MeCN/DMF 8:1, 18.1 mM, 2.0 h) of 77.9%.
`CC(C)(C)OC(=O)N[C@H]1CCCN2C(=O)COc3cccc(F)c3C3=CCC(CC3)OC[C@@H]12` (stereo partly drawn) showed a ring closure, isolated yield in data set [1] (from CC(C)(C)OC(=O)N[C@H]1CCCN[C@H]1COC1CC=C(c2c(F)cccc2OCC(=O)O)CC1, 13-membered ring, HATU/DIEA, MeCN, 2.1 mM, 2.0 h) of 71%.
Compound `CC(C)(C)OC(=O)N[C@H]1CCCN2C(=O)COc3nccnc3C3CCC(CC3)OC[C@@H]12` returned a ring closure, isolated yield in data set [1] (from CC(C)(C)OC(=O)N[C@H]1CCCN[C@H]1COC1CCC(c2nccnc2OCC(=O)O)CC1, 13-membered ring, HATU/DIEA, MeCN, 2.16 mM, 1.0 h) of 42.1%.
For `CC(C)(C)OC(=O)N[C@H]1CCCN2C(=O)COc3nnccc3C3CCC(CC3)OC[C@@H]12`, the ring closure, isolated yield in data set [1] (from CC(C)(C)OC(=O)N[C@H]1CCCN[C@H]1COC1CCC(c2ccnnc2OCC(=O)O)CC1, 13-membered ring, HATU/DIEA, MeCN, 0.94 mM, 25.0 °C, 2.0 h) is 76%.
On to `COc1ccc(CNC2CCN3C(=O)C(F)(F)Oc4c(F)cc(F)cc4C4CCC(CC4)OCC23)cc1` (stereo not drawn), for which the ring closure, isolated yield in data set [1] (from COc1ccc(CNC2CCNC2COC2CCC(c3cc(F)cc(F)c3OC(F)(F)C(=O)O)CC2)cc1, 13-membered ring, HATU/diisopropylamine, DCM/MeCN 1:1, 18.5 mM, 3.0 h) was determined as 39.3%.
Broadly, the EC50 is the concentration at which the effect is half-maximal. As usually defined, the Papp A→B is how fast a substance crosses the layer from the apical side. Consider `CS(=O)(=O)N[C@H]1CCCN2C(=O)COc3ccccc3C3CC[C@H](CO3)OCC12` (stereo partly drawn) [Compound 9], for which the EC50 in data set [2] was under 100 nM. Moreover, in the data set on MDR1, the Papp A→B at 2 h, 3 μM was determined as 0.45 ×10⁻⁶ cm/s and the efflux ratio at 2 h, 3 μM came to 2.6. For the same compound, in the data set with human hepatocytes, the “Extraction Ratio (ER)” value came out at 0.50. Further, in data set [3], the hepatocyte CLint at 1 μM stood at 6.7 µL/min/1e6 cells.
The like results for `C[C@@H]1Oc2ccccc2C2CCC(CC2)OCC2[C@@H](NS(C)(=O)=O)CCCN2C1=O` (stereo partly drawn) [Compound 37] were, in that order, under 100 nM, 0.91 ×10⁻⁶ cm/s, 27, 0.82 and 30 µL/min/1e6 cells.
For `C[C@H]1Oc2ccccc2C2CCC(CC2)OCC2[C@@H](NS(C)(=O)=O)CCCN2C1=O` (stereo partly drawn) [Compound 38], in data set [2], the 50% effective concentration (EC50) was under 100 nM. In the data set on MDR1, the Papp A→B at 2 h, 3 μM came to 0.77 ×10⁻⁶ cm/s and the efflux ratio at 2 h, 3 μM worked out at 18. For the same compound, in the data set on human hepatocytes, the “Extraction Ratio (ER)” value was 0.82. In addition, the hepatocyte CLint at 1 μM in data set [3] came out at 30 µL/min/1e6 cells.
As for `C[C@H]1CN2CCC[C@H](NS(C)(=O)=O)C2COC2CCC(CC2)c2ccccc2O1` (stereo partly drawn) [Compound 48], the EC50 in data set [2] was under 100 nM. For the same compound, in the data set with MDR1, the Papp A→B at 2 h, 3 μM stood at 7.3 ×10⁻⁶ cm/s and the efflux ratio at 2 h, 3 μM worked out at 1.5. The “Extraction Ratio (ER)” value with human hepatocytes is reported as 0.90. In data set [3], the hepatocyte CLint at 1 μM is 60 µL/min/1e6 cells.
Consider `[2H][C@@H]1[C@@H]2C[C@H]([2H])[C@@]([2H])(c3cc(F)cc(F)c3OCC(=O)N3CCC[C@H](NS(C)(=O)=O)C3CO2)[C@@H]1[2H]` (stereo partly drawn) [Compound 50], for which, in data set [2], the EC50 is under 100 nM. For the same compound, in the data set on MDR1, the Papp A→B at 2 h, 3 μM is 1.2 ×10⁻⁶ cm/s and the efflux ratio at 2 h, 3 μM is 21. The “Extraction Ratio (ER)” value in the data set on human hepatocytes is listed as 0.70. Moreover, the hepatocyte CLint at 1 μM in data set [3] turned out to be 16 µL/min/1e6 cells.
`[2H]C1([2H])COc2ccccc2C2CCC(CC2)OCC2[C@@H](NS(C)(=O)=O)CCCN21` (stereo partly drawn) [Compound 60]: the EC50 in data set [2] lay in the range of 100 to 1000 nM. In the data set with MDR1, the Papp A→B at 2 h, 3 μM worked out at 8.8 ×10⁻⁶ cm/s and the efflux ratio at 2 h, 3 μM was 1.4. Also, the “Extraction Ratio (ER)” value with human hepatocytes was 0.89. Besides, the hepatocyte CLint at 1 μM in data set [3] was found to be 54 µL/min/1e6 cells.
For the compound `C[C@H]1COc2ccccc2C2CCC(CC2)OCC2[C@@H](NS(C)(=O)=O)CCCN21` (stereo partly drawn) [Compound 62], the EC50 in data set [2] is over 1000 nM. Besides, in the data set on MDR1, the Papp A→B at 2 h, 3 μM turned out to be 6.8 ×10⁻⁶ cm/s and the efflux ratio at 2 h, 3 μM came out at 2.2. In addition, the “Extraction Ratio (ER)” value with human hepatocytes was 0.89. In data set [3], the hepatocyte CLint at 1 μM was 18 µL/min/1e6 cells.
Take `C[C@@H]1COc2ccccc2C2CCC(CC2)OCC2[C@@H](NS(C)(=O)=O)CCCN21` (stereo partly drawn) [Compound 63]: the EC50 in data set [2] was over 1000 nM. Besides, in the data set with MDR1, the Papp A→B at 2 h, 3 μM was 9.1 ×10⁻⁶ cm/s and the efflux ratio at 2 h, 3 μM amounted to 0.75. The “Extraction Ratio (ER)” value with human hepatocytes came out at 0.86. Further, the hepatocyte CLint at 1 μM in data set [3] turned out to be 40 µL/min/1e6 cells.
